# According to ChEMBL document CHEMBL4184331 (J Med Chem, 2018):
# Activity calls are given as the source filed them. The rule behind the calls is not given here.
# How the values were obtained:
# [1] = AUClast in Sprague-Dawley rat lung at 1 umol/kg, it by HPLC-MS/MS method; format: ADME, tissue-based; settings: in vivo, inhaled_or_intranasal
# [2] = MRTlast in Sprague-Dawley rat plasma at 1 umol/kg, it by HPLC-MS/MS method; format: ADME, cell-free; settings: inhaled or intranasal
# RAW264.7 = experiment: cells; settings: Mus musculus
# Description: Antiinflammatory activity in mouse RAW264.7 cells assessed as inhibition of LPS-induced nitric oxide release preincubated for 15 mins followed by LPS challenge measured after 18 hrs by Griess assay
# Rattus norvegicus [3] = species: Rattus norvegicus; experiment: Antiinflammatory activity in LPS-induced Sprague-Dawley rat neutrophilic lung inflammation model assessed as inhibition of neutrophilic infiltration in bronchoalveolar lavage at ID80, it preincubated for 24 hrs followed by LPS challenge measured after 4 hrs relative to control; format: functional
# [4] = Cmax in Sprague-Dawley rat plasma at 1 umol/kg, it by HPLC-MS/MS method; format: ADME, cell-free; parameters: dose 1 umol/kg; settings: inhaled or intranasal
# [5] = AUClast in Sprague-Dawley rat plasma at 1 umol/kg, it by HPLC-MS/MS method; format: ADME, cell-free; settings: inhaled or intranasal
# [6] = MRTlast in Sprague-Dawley rat lung at 1 umol/kg, it by HPLC-MS/MS method; format: ADME, tissue-based; settings: inhaled or intranasal
# [7] = Cmax in Sprague-Dawley rat lung at 1 umol/kg, it by HPLC-MS/MS method; format: ADME, tissue-based; parameters: dose 1 umol/kg; settings: in vivo, inhaled_or_intranasal
# [8] = molecular target: T1, Glucocorticoid receptor (Homo sapiens) (UniProt P04150); experiment: Displacement of [3H]dexamethasone from human recombinant glucocorticoid receptor expressed in insect cells at 1000 nM after 24 hrs by scintillation proximity assay relative to control
# T1 sequence (whole entry): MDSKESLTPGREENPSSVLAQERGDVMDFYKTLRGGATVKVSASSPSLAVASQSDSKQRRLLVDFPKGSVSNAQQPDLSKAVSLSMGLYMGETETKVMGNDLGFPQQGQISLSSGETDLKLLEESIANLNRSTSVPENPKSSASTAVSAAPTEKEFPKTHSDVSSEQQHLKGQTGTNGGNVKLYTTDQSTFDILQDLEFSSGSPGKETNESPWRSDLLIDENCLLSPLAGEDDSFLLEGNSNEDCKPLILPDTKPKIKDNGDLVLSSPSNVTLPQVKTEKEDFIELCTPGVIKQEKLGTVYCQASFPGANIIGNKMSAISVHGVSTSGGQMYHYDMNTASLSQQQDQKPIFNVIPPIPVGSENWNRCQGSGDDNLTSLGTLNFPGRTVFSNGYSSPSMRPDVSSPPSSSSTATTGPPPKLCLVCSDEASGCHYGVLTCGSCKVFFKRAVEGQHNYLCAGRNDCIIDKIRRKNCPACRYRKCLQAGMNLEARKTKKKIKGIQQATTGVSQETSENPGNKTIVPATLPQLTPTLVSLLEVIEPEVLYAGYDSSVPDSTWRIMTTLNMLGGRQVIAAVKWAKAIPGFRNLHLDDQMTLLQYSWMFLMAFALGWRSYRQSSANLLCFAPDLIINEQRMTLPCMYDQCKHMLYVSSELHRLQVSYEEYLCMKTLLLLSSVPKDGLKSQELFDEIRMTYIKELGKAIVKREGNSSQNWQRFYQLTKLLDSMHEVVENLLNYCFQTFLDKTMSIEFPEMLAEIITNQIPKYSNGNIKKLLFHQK
# Rattus norvegicus [9] = experiment: Antiinflammatory activity in LPS-induced Sprague-Dawley rat neutrophilic lung inflammation model assessed as inhibition of neutrophilic infiltration in bronchoalveolar lavage at 1 mg/kg, it preincubated for 1 hr followed by LPS challenge measured after 4 hrs relative to control; format: functional
# Rattus norvegicus [10] = experiment: Antiinflammatory activity in LPS-induced Sprague-Dawley rat neutrophilic lung inflammation model assessed as inhibition of neutrophilic infiltration in bronchoalveolar lavage at 0.3 mg/kg, it preincubated for 1 hr followed by LPS challenge measured after 4 hrs relative to control; format: functional
# [11] = molecular target: T2, Mineralocorticoid receptor (Homo sapiens, UniProt P08235)
# T2 sequence (P08235 whole entry): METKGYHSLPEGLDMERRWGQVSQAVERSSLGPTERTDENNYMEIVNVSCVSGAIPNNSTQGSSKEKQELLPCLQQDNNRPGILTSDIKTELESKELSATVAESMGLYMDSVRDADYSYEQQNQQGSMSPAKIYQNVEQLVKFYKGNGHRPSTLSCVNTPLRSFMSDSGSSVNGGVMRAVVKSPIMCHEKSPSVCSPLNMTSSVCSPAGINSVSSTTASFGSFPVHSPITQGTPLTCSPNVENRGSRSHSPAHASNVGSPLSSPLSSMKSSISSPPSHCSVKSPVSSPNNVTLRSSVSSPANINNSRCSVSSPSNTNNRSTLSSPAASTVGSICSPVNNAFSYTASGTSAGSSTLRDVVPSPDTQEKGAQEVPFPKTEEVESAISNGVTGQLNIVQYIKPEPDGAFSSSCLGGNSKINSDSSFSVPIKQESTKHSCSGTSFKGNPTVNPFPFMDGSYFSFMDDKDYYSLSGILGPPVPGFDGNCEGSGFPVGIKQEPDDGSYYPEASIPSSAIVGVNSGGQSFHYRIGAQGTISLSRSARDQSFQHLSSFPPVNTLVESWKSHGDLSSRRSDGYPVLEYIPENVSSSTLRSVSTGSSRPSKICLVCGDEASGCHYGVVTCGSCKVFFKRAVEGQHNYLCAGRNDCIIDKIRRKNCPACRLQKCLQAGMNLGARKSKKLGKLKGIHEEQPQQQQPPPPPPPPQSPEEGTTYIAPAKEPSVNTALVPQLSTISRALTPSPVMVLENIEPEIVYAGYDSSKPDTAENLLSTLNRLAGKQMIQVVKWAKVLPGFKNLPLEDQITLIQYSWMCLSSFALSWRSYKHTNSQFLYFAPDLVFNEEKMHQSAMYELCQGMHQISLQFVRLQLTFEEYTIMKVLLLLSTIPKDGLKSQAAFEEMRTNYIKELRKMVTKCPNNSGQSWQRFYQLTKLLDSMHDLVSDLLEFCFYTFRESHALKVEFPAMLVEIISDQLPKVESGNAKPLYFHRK
# Description: Induction of nuclear translocation of human recombinant ProLabel-tagged mineralocorticoid receptor expressed in CHO-K1 cells after 3 hrs by luminescence method
# Rattus norvegicus [12] = experiment: Antiinflammatory activity in LPS-induced Sprague-Dawley rat neutrophilic lung inflammation model assessed as inhibition of neutrophilic infiltration in bronchoalveolar lavage at 0.03 mg/kg, it preincubated for 1 hr followed by LPS challenge measured after 4 hrs relative to control; format: functional
# Glucocorticoid receptor [13] = molecular target: T3, Glucocorticoid receptor (Homo sapiens, UniProt P04150)
# T3 sequence (P04150 whole entry): T1 sequence (whole entry)
# Description: Induction of nuclear translocation of human recombinant ProLabel-tagged glucocorticoid receptor expressed in CHO-K1 cells after 3 hrs by luminescence method
# Glucocorticoid receptor [14] = molecular target: T3, Glucocorticoid receptor; experiment: biochemical
# Description: Displacement of [3H]dexamethasone from human recombinant glucocorticoid receptor expressed in insect cells after 24 hrs by scintillation proximity assay
# Rattus norvegicus [15] = experiment: Antiinflammatory activity in LPS-induced Sprague-Dawley rat neutrophilic lung inflammation model assessed as inhibition of neutrophilic infiltration in bronchoalveolar lavage at 0.1 mg/kg, it preincubated for 1 hr followed by LPS challenge measured after 4 hrs relative to control; format: functional
# Rattus norvegicus [16] = experiment: Antiinflammatory activity in it dosed LPS-induced Sprague-Dawley rat neutrophilic lung inflammation model assessed as inhibition of neutrophilic infiltration in bronchoalveolar lavage preincubated for 1 hr followed by LPS challenge measured after 4 hrs; format: functional; settings: read-out: ID50 (the source's name)
# Rattus norvegicus [17] = experiment: Antiinflammatory activity in LPS-induced Sprague-Dawley rat neutrophilic lung inflammation model assessed as inhibition of neutrophilic infiltration in bronchoalveolar lavage at 3 mg/kg, it preincubated for 1 hr followed by LPS challenge measured after 4 hrs relative to control; format: functional
# Description for physchem: Dissociation constant, pKa of the compound
AUClast [1] [nmol·h/g],MRT last [2] [h],IC50 (RAW264.7) [nM],Cmax [4] [nM],AUC(0-t) [5] [µM·h],MRT last [6] [h],Cmax [7] [nmol/g],Structure (SMILES),inhibition (INH) (Rattus norvegicus [3]) [%],inhibition [8] [%],pKa (physchem),inhibition in vivo at 1 mg/kg (Rattus norvegicus [9]) [%],inhibition in vivo at 0.3 mg/kg (Rattus norvegicus [10]) [%],EC50 [11] [nM],inhibition in vivo at 0.03 mg/kg (Rattus norvegicus [12]) [%],EC50 (Glucocorticoid receptor [13]) [nM],Ki (Glucocorticoid receptor [14]) [nM],inhibition in vivo at 0.1 mg/kg (Rattus norvegicus [15]) [%],ED50 (Rattus norvegicus [16]) [µmol/kg],inhibition (Rattus norvegicus [3]),inhibition in vivo at 3 mg/kg (Rattus norvegicus [17]) [%]
1049,1.4,0.1,45,0.05,9.5,77.1,C[C@@H]1C[C@H]2[C@@H]3C[C@H](F)C4=CC(=O)C=C[C@]4(C)[C@@]3(F)[C@@H](O)C[C@]2(C)[C@@]1(OC(=O)c1ccco1)C(=O)SCF [FLUTICASONE FUROATE],>80,,,,,,,,,,,,
,,,,,,,C[C@]12C=CC(=O)C=C1[C@@H](F)C[C@H]1[C@@H]3C[C@H]4CNC[C@@]4(C(=O)CO)[C@@]3(C)C[C@H](O)[C@@]12F,,40,8.82,,,,,,,,,,
110.03,1.2,0.82,127,11.6,0.71,18.67,CCCC1O[C@@H]2C[C@H]3[C@@H]4CCC5=CC(=O)C=C[C@]5(C)[C@H]4[C@@H](O)C[C@]3(C)[C@]2(C(=O)CO)O1 (stereo not given in full) [BUDESONIDE],,,,73,45,,,,,29,0.34,inactive,84

Structure (SMILES),AUClast [1] [nmol·h/g],MRT last [2] [h],IC50 (RAW264.7) [nM],Cmax [4] [nM],AUC(0-t) [5] [µM·h],MRT last [6] [h],Cmax [7] [nmol/g],inhibition (INH) (Rattus norvegicus [3]) [%],inhibition [8] [%],pKa (physchem),inhibition in vivo at 1 mg/kg (Rattus norvegicus [9]) [%],inhibition in vivo at 0.3 mg/kg (Rattus norvegicus [10]) [%],EC50 [11] [nM],inhibition in vivo at 0.03 mg/kg (Rattus norvegicus [12]) [%],EC50 (Glucocorticoid receptor [13]) [nM],Ki (Glucocorticoid receptor [14]) [nM],inhibition in vivo at 0.1 mg/kg (Rattus norvegicus [15]) [%],ED50 (Rattus norvegicus [16]) [µmol/kg],inhibition (Rattus norvegicus [3]),inhibition in vivo at 3 mg/kg (Rattus norvegicus [17]) [%]
C[C@]12C=CC(=O)C=C1[C@@H](F)C[C@H]1[C@@H]3C[C@H]4CN(Cc5cccc(Cl)c5)C[C@@]4(C(=O)CO)[C@@]3(C)C[C@H](O)[C@@]12F,871.2,1.4,0.08,110,0.118,16.7,64.26,>80,,6.64,92,64,2.5,47,1.8,0.76,56,0.097,,
